Measured values from publication PMC3604073, “Chemerin Is an Antimicrobial Agent in Human Epidermis” (PLoS ONE, 2013).

Legend:
[1] = system: E. coli ATCC 25922; experiment: Radial diffusion assay (RDA); type: cell-based; conditions: peptides at 100 µM, low salt conditions
Experimental: The indicated bacteria were grown to mid-logarithmic phase in 10 ml of full-strength (3% w/v) TSB as previously described. The microorganisms were then washed once with 10 mM Tris, pH 7.4. 4×10^6 bacterial CFUs were then added to 15 ml of the underlay agarose gel, consisting of 0.03% (w/v) TSB, 1% (w/v) low electroendosmosis type (EEO) agarose (Sigma) and 0.02% (v/v) Tween 20 (Sigma), with or without 0.15 M NaCl. The underlay was poured into a Ø 144 mm Petri dish. After agarose solidification, 4 mm-diameter wells were punched and 6 µl of chemerin-derived peptides or LL37 (Innovagen AB) was added to each well. Plates were incubated at 37°C for 3 hours to allow diffusion of the peptides. The underlay gel was then covered with 15 ml of molten overlay (6% TSB and 1% Low-EEO agarose in dH2O). Antimicrobial activity of a peptide was visualized as a zone of clearing around each well after 18–24 hours of incubation at 37°C.

[2] = system: E. coli; conditions: evaluated at 2 µM; cited from earlier work

Molecule: DWKKPECKVRPNGRKRKCLA [p5, synthetic chemerin-derived peptide]
- inhibition of growth zones in RDA [1]: inhibited growth zones

Molecule: RKCLACIKLGSEDKVLGRLV [p6, synthetic chemerin-derived peptide]
- inhibition of growth zones in RDA [1]: inhibited growth zones

B1: pro-chem163S: chemerin precursor (holoprotein) with the inhibitory C-terminal peptide (protein, UniProt Q99969 21-163, looked up)
pro-form: ELTEAQRRGLQVALEEFHKHPPVQWAFQETSVESAVDTPFPAGIFVRLEFKLQQTSCRKRDWKKPECKVRPNGRKRKCLACIKLGSEDKVLGRLVHCPIETQVLREAEEHQETQCLRVQRAGEDPHSFYFPGQFAFSKALPRS
modifications: pro-form
- E. coli survival [2]: 59±13%
